Here are results for three compounds from patent publication US20050175535A1 (CV Therapeutics, Inc., priority 2000, published 2005).

The subject of experiment [1] is rat isolated perfused heart. Kind of experiment: Coronary conductance / coronary perfusion pressure in isolated perfused rat hearts. The following applies: for EC50: Rattus norvegicus; for effect on coronary conductance: isolated rat hearts, in words. On the procedure: Briefly, rats of either sex weighing 230-260 grams were anesthetized by intraperitoneal injection of a mixture of ketamine (100 mg/ml) and xylazine (20 mg/ml). The chest of each rat was opened and the heart removed, and rinsed in ice-cold modified Krebs-Henseleit (K-H) solution containing NaCl 117.9, KCl 4.5, CaCl2 2.5, MgSO4 1.18, KH2PO4 1.18, pyruvate 2.0 mmo/L. The aorta was cannulated and the heart was perfused at a flow rate of 10 ml/min with modified K-H solution. The K-H solution (pH 7.4) was gassed continuously with 95% O2 and 5% CO2 and warmed to 35±0.5° C. The heart was electrically paced at a fixed cycle length of 240 ms (250 beats/min) using a bipolar electrode placed in the left atrium. The electrical stimuli were generated by a Grass stimulator (Model S48, W. Warwick, R.I.) and delivered through a Stimuli Isolation Unit (Model SIU5, Astro-Med, Inc., NY) as square-wave pulses of 3-msec in duration and with an amplitude of at least twice the threshold intensity.
The identity of the adenosine receptor subtype (A1 or A2A) mediating the coronary vasodilation was determined.
Coronary perfusion pressure (CPP) was measured using a pressure transducer that was connected to the aortic cannula via a T-connector positioned approximately 3 cm above the heart. CPP was monitored throughout an experiment and recorded either on a chart recorder (Gould Recorder 2200S, Valley View, Ohio) or a computerized recording system (PowerLab/4S, ADInstruments Pty Ltd, Australia). Only hearts with CPP ranging from 60 to 85 mmHg (in the absence of drugs) were used in the study. CC conductance (in ml/min/mmHg) was calculated as the ratio between coronary perfusion rate (10 ml/min) and CPP.

Experiment [2] concerns rat isolated perfused heart. Nature of the experiment: Reversal time of coronary vasodilation in rat isolated perfused hearts.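 As to t0.5, time to 50% reversal of the increase in coronary conductance: each agonist bolused at its minimal concentration giving equal maximal coronary conductance rise.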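 As to t0.9, time to 90% reversal of the increase in coronary conductance: each agonist bolused at its minimal concentration giving equal maximal coronary conductance rise.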 The following applies: bolus; for t0.5, time to 50% reversal of the increase in coronary conductance / t0.9, time to 90% reversal of the increase in coronary conductance: rat isolated perfused heart. How it is done:
FIG. 10. Reversal of effect of agonist stimulation on CC. […] CC was measured at 8, 16 and 24 minutes after administration (FIG. 10A). […] R and N are the correlation coefficient and number of agonists, respectively.
The relationship between the affinity of agonists for the A2A receptor and the rate of reversal of agonist-mediated responses (coronary vasodilation in heart and cAMP accumulation in PC12 cells) upon termination of drug administration were determined. […] The duration of the coronary vasodilation in isolated rat hearts caused by adenosine, the CVT compounds, and other agonists measured as the time to 50% and 90% (t0.5 and t0.9, respectively) reversal of the increases in coronary conductance after termination of drug administration are summarized in Table 4.

A further experiment concerns the target A2A adenosine receptors (Sus scrofa, UniProt K9IW67). Nature of the experiment: Competitive radioligand binding, [3H]ZM241385, pig striatum membranes. On the procedure:
Membranes were also obtained from porcine striatial cells as follows. […] The homogenate was filtered through cotton gauze and centrifuged at 48,000g for 15 minutes at 4° C. […] The final pellet was frozen at −80° C. until used for receptor binding assays.

The target in a further experiment is T1, A1 adenosine receptor (Rattus norvegicus, UniProt P25099).
T1 construct: Effect of concentration on AV conduction time and coronary conductance in isolated rat hearts; tissue Simonsen Laboratories (Gilroy, Calif.); host or cells: isolated perfused rat heart (Sprague Dawley)
T1 sequence (P25099 1-326): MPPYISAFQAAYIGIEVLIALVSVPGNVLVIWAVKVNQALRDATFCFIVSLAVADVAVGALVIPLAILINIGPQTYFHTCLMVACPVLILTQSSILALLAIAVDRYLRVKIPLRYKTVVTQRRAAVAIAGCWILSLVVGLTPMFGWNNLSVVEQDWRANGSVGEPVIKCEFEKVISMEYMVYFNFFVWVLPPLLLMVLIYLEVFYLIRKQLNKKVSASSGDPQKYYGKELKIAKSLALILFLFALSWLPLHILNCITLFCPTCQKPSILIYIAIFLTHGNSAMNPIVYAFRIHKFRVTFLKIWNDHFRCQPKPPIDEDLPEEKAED
Nature of the experiment: A-V nodal conduction time (negative dromotropic effect) in isolated rat hearts.

The target in experiment [3] is T2, human A1 adenosine receptors (Homo sapiens, UniProt P30542).
T2 construct: expressed in transfected cells
T2 sequence (P30542 1-326): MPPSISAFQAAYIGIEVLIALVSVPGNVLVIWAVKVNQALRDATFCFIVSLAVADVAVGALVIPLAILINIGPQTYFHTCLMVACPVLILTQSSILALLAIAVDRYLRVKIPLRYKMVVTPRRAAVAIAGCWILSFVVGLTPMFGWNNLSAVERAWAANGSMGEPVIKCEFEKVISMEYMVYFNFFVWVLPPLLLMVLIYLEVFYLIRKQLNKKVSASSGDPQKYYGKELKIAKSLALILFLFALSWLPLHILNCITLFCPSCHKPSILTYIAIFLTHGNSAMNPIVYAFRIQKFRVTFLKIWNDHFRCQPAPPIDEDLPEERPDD
Kind of experiment: Competitive radioligand binding, [3H]CPX, CHO-hA1AdoR membranes. The following applies: for Ki: [3H]CPX; for affinity for the A1 receptor expressed by CHO-K1 cells: in words. On the procedure: The cell suspensions were homogenized and centrifuged at 48,000g for 15 minutes. The pellets were washed three times by re-suspension in ice-cold Tris-HCl buffer and centrifugation. The final pellet was re-suspended in Tris-HCl, aliquoted and frozen at −80° C. until used for receptor binding assays.

Setting [4] is: read-out: EC50, Coronary Conductance (Rat Isolated Heart).
Where [5] appears, read: read-out: pEC50 ± SEM, Coronary Conductance (Rat Isolated Heart) (converted).
Setting [6] is: [3H]ZM241385, Gpp(NH)p present, read-out: pKi ± SEM, Pig Strialum (A2A) (converted).
[7] abbreviates: read-out: binding affinity to A2A receptors in pig striatum (Ki).
Where [8] appears, read: read-out: pKi ± SEM, CHO-hA1AdoR (converted).

Where two headings read alike, the source gives them in different places.

Chain of A2A adenosine receptors (K9IW67 1-409): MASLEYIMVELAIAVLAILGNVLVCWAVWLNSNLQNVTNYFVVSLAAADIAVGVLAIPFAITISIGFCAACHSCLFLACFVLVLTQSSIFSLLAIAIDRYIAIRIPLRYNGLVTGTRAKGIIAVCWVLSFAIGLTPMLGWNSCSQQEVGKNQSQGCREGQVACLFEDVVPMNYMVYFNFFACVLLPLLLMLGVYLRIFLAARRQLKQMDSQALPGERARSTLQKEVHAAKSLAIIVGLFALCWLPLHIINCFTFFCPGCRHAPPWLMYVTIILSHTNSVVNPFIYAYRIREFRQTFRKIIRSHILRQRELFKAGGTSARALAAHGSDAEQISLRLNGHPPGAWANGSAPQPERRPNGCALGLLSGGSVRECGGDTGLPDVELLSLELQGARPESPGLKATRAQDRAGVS

With `Nc1ncnc2c1ncn2[C@@H]1O[C@H](CO)[C@@H](O)[C@H]1O` [Adenosine, adenosine, reference compound], the EC50 in experiment [1] (setting [4]) was 59.2 nM. Moreover, in experiment [1] (setting [5]), the EC50 is 57.5 nM. In experiment [1], the “effect on coronary conductance” value is “concentration-dependent increases in coronary conductance”. Besides, the “duration of the effect on coronary conductance (rank among agonists)” value in experiment [2] (isolated rat hearts, FIG. 10) is on record as “shortest”. In addition, in experiment [2], the “t0.5, time to 50% reversal of the increase in coronary conductance” value is on record as 1.6 ± 0.1 min and the “t0.9, time to 90% reversal of the increase in coronary conductance” value is 5.6 ± 0.8 min.

Regarding `CCCCCn1cc(-c2nc(N)c3ncn(C4O[C@@H](CO)[C@H](O)[C@@H]4O)c3n2)cn1` (stereo partly shown) [CVT-3033], the EC50 in experiment [1] (setting [4]) was 68 nM; in experiment [1] (setting [5]) it was 64.6 nM. Further, in experiment [1], the “effect on coronary conductance” value was “increased coronary conductance in a concentration-dependent manner”. Moreover, the Ki at A2A adenosine receptors (setting [6]) is 2140 nM; at A2A adenosine receptors (setting [7]) it was 1420 nM; in experiment [3] (read-out: Ki, CHO-hA1AdoR) it was 5840 nM; in experiment [3] (setting [8]), 5750 nM. Moreover, the “effect on A-V nodal conduction time” value at A1 adenosine receptor was “did not prolong A-V nodal conduction time”. In addition, the “t0.5, time to 50% reversal of the increase in coronary conductance” value in experiment [2] is reported as 3.4 ± 0.5 min. Also, in experiment [2], the “t0.9, time to 90% reversal of the increase in coronary conductance” value was 8.4 ± 2.2 min. The “affinity for the A1 receptor expressed by CHO-K1 cells” value in experiment [3] is reported as “relatively low affinities”.

With `CNC(=O)c1cnn(-c2nc(N)c3ncn(C4O[C@@H](CO)[C@H](O)[C@@H]4O)c3n2)c1` (stereo partly shown) [CVT-3146], the “decrease in coronary perfusion pressure” value in experiment [1] (10 nM, isolated rat heart) is given as 23 mmHg. In addition, the “effect of 60 nM CPX (A1 antagonist) on the increase in coronary conductance” value in experiment [1] (CVT-3146 10 nM) is given as “not affected”. The “effect of 60 nM ZM241385 (A2a antagonist) on the increase in coronary conductance” value in experiment [1] (CVT-3146 10 nM) is “completely reversed”. In experiment [1] (CVT-3146 10 nM, baseline 0.16±0.02, n=6 hearts), this compound gave a coronary conductance of 0.22±0.01 ml mm Hg−1 min−1. Besides, the EC50 in experiment [1] (setting [4]) is 6.4 nM; in experiment [1] (setting [5]) it was 6.46 nM. For the same compound, in experiment [1] (isolated rat heart), the “agonist behaviour with respect to coronary artery conductance” value is reported as “full agonist”. Moreover, the “effect on coronary conductance” value in experiment [1] was “increased coronary conductance in a concentration-dependent manner”. Besides, the Ki was 1120 nM on A2A adenosine receptors (setting [6]); 1100 nM on A2A adenosine receptors (setting [7]); > 16500 nM in experiment [3] (read-out: Ki, CHO-hA1AdoR); 25700 nM in experiment [3] (setting [8]). The “effect on A-V nodal conduction time” value at A1 adenosine receptor is “did not prolong A-V nodal conduction time”. The “affinity for the A1 receptor expressed by CHO-K1 cells” value in experiment [3] was “relatively low affinities”.
